Source: patent US11066638B2 (priority 2016, dated 2021)
≈ marks a conversion by molar mass, not a printed value. Like-named read-outs stand apart in the source and are kept apart here.

Columns and labels:
Listeria monocytogenes [1] = conditions: 18 hours
Listeria monocytogenes [2] = conditions: for colony formation of bacterial ghosts plated on BHI agar media: MIC
Method: Specifically, a BHI liquid medium was inoculated with Listeria, and incubated for 72 hours. After incubation, centrifugation was performed at 10,000 g for 10 minutes to obtain the cultured Listeria. […] Listeria was obtained at 15, 30, 45, 60 and 90 minutes after the beginning of culture and the lysis rate was measured.

Listeria monocytogenes [3] = assay: microbe, parasite or virus in culture; conditions: 18 h, read-out: minimum inhibitory concentration (MIC)
Method: (§1) Specifically, Listeria monocytogenes, a gram-positive bacterium, was cultured in a brain-heart infusion (BHI) medium at 7° C. and 200 rpm under shaking conditions overnight, and then the degree of bacterial growth was determined by measuring optical density at 600 nm using a Biochrom Libra S22 spectrophotometer.

Listeria monocytogenes [4] = conditions: BHI liquid medium, 10^6 CFU/ml, 37° C., 18 hours, optical density at 600 nm
Method: as §1

[5] = treated with 6.25 mg/ml (MIC), plated without dilution, 37° C.

SMILES | colony formation on BHI agar medium (Listeria monocytogenes [1]; treated with 3.125 mg/ml, diluted to a dilution factor of 1/10, 37° C.) | colony formation on BHI agar medium (Listeria monocytogenes [1]; [5]) | colony formation of bacterial ghosts plated on BHI agar media (Listeria monocytogenes [2]; ghosts prepared from 15 minutes after treatment) | lysis rate of gram-positive bacteria (Listeria monocytogenes [2]; at about 15 minutes after the MIC has been applied) [%] | MIC (Listeria monocytogenes [3]) [µg/mL] | colony formation on BHI agar medium (Listeria monocytogenes [1]; treated with 3.125 mg/ml, plated without dilution, 37° C.) | minimum inhibitory concentration (MIC) (Listeria monocytogenes [4]) [µg/mL] | time to formation of bacterial ghosts after treatment (Listeria monocytogenes [2]; MIC 6.25 mg/ml, 37° C., 10^6 CFU/ml Listeria in PBS) | colony formation of bacterial ghosts plated on BHI agar media (Listeria monocytogenes [2]; ghosts prepared from 10 minutes after treatment)
Cl [hydrochloric acid] | tens of colonies were also formed | no viable colony was formed | colonies were not formed | 100 | 6250 (≈ 171 mM) | – | – | – | –
[Na+].[OH-] [sodium hydroxide] | – | no viable colony was formed | – | – | – | thousands of colonies were formed | 6250 | about 10 minutes | colonies were not formed
